One assay deals with human TLR9 (Homo sapiens (Human), UniProt Q9NR96). Briefly: TLR9 inhibition reporter assay (HEK-Blue SEAP).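 Note: SEAP driven by an IFN-β minimal promoter with NF-κB and AP-1 sites, read after 22 h, compounds dosed 0.05 nM–50 µM, inhibition scaled between agonist plus DMSO and reference-inhibitor wells.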 To be noted: read-out: TLR9 IC50. (Reporter assays use an easily measured gene product as a stand-in for the process of interest.)
The target of another assay is human TLR7 (Homo sapiens (Human), UniProt Q9NYK1). Briefly: TLR7 inhibition reporter assay (HEK-Blue SEAP). It counts as cell-based.
Sequence of human TLR7 (Q9NYK1 27-1049): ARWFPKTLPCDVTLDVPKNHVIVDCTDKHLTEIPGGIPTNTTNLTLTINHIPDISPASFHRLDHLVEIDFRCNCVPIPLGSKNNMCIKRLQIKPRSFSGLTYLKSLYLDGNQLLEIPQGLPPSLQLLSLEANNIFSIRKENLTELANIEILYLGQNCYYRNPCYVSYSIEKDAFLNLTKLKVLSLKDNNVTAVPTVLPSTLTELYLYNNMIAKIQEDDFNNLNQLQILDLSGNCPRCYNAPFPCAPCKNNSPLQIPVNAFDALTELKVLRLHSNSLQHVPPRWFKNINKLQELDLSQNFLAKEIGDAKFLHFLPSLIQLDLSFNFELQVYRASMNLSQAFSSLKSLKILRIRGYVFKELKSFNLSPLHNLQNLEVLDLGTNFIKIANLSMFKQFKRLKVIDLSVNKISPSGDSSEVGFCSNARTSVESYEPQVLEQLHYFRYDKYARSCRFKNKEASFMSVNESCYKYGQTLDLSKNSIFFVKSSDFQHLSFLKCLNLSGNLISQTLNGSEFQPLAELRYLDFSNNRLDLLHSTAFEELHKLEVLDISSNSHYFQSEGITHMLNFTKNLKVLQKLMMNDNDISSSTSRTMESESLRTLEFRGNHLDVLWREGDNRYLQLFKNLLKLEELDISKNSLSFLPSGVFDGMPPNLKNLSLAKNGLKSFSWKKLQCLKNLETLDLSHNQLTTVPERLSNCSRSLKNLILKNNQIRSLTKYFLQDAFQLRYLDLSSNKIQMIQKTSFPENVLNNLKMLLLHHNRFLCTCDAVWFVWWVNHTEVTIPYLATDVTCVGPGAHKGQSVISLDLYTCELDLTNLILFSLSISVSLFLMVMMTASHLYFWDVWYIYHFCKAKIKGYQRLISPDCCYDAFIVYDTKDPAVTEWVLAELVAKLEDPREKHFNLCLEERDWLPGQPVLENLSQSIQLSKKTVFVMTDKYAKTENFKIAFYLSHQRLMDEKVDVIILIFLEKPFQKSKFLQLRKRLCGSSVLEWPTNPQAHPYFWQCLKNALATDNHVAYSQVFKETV
Another assay deals with human TLR8 (Homo sapiens (Human), UniProt Q9NR97). Briefly: TLR8 inhibition reporter assay (HEK-Blue SEAP).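 Note: SEAP driven by IFN-β minimal promoter carrying NF-κB and AP-1 sites, compounds dosed 0.05 nM to 50 µM for 22 h, inhibition scaled between agonist-plus-DMSO and reference-inhibitor wells.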 To be noted: read-out: TLR8 IC50.
Sequence of human TLR8 (Q9NR97 27-1041): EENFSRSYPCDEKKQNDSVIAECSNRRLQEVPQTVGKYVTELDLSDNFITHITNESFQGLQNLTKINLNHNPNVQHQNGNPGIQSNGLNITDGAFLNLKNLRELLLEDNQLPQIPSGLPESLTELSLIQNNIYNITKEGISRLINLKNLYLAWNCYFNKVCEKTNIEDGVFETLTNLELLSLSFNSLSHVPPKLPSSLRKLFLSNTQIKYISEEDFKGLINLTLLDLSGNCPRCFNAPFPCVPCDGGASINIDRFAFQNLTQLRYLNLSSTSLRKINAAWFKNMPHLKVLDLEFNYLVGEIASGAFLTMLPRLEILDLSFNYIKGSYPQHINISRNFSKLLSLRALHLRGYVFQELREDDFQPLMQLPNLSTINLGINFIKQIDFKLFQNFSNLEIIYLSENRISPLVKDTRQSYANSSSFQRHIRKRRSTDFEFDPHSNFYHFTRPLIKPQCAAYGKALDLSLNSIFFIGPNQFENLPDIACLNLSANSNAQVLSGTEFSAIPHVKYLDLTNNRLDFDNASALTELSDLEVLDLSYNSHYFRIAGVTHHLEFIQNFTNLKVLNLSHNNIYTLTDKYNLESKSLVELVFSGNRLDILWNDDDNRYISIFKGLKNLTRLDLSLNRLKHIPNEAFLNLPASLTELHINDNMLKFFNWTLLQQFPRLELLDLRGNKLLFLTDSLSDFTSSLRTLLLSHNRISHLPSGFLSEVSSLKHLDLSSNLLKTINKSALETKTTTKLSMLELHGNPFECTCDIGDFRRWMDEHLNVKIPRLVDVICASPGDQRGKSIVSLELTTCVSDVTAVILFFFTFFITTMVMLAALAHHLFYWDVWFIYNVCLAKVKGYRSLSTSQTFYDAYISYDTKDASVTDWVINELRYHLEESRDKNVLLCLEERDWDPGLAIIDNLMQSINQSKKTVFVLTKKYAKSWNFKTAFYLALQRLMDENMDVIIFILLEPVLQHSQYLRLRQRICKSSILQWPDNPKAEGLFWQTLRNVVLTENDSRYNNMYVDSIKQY
Where [1] appears, read: HEK-Blue cells overexpressing human TLR9, SEAP reporter, ODN2006 5 nM.
[2] abbreviates: HEK-Blue cells overexpressing human TLR7, SEAP reporter, gardiquimod 7.5 μM.
The mark [3] stands for this setting: HEK-Blue cells overexpressing human TLR8, SEAP reporter, R848 15.9 μM.
Where [4] appears, read: HEK-Blue cells overexpressing human TLR9, ODN2006 5 nM stimulation, SEAP reporter.
Setting [5] is: HEK-Blue cells overexpressing human TLR7, gardiquimod 7.5 μM stimulation, SEAP reporter.
The mark [6] stands for this setting: HEK-Blue cells overexpressing human TLR8, R848 15.9 μM stimulation, SEAP reporter.
Where [7] appears, read: HEK-Blue human TLR9 cells, ODN2006 5 nM.
Where [8] appears, read: HEK-Blue human TLR7 cells, gardiquimod 7.5 μM.
Where [9] appears, read: HEK-Blue human TLR8 cells, R848 15.9 μM.

Each structure is given as a SMILES string. Where two headings read alike, the source gives them in different places.

The results in this text go back to patent US10544143B2, “4-azaindole compounds” (BRISTOL-MYERS SQUIBB COMPANY, priority 2017, dated 2020).

By IC50 is commonly meant the concentration needed to halve the response being measured.

Sequence of human TLR9 (Q9NR96 26-1032): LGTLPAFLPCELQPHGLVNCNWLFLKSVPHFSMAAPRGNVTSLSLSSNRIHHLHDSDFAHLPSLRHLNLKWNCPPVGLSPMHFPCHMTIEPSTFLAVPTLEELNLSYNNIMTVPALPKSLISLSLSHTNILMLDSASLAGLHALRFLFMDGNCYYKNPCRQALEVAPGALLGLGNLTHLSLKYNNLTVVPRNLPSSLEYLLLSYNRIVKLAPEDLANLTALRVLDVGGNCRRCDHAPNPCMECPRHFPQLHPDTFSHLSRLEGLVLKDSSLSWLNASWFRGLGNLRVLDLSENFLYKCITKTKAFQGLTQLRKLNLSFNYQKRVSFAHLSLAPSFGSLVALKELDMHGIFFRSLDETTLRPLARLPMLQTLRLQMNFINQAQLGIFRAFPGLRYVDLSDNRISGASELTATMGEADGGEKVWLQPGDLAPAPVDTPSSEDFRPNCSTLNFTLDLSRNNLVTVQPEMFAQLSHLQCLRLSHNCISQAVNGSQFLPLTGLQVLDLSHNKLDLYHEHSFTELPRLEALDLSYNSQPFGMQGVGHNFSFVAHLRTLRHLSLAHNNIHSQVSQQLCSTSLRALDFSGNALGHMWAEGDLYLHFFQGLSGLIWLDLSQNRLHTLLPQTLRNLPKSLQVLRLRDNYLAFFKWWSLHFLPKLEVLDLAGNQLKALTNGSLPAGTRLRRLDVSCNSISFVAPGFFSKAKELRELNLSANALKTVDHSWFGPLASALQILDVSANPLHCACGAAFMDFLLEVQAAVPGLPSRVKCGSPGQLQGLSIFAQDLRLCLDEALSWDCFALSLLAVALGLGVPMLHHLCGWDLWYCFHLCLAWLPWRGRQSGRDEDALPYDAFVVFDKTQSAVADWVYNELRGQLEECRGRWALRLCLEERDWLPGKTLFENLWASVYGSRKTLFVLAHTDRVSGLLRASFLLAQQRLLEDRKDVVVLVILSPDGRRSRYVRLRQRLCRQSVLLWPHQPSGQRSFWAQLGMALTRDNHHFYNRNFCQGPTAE

Take `COc1cc(-c2[nH]c3ccc(C4CCC(N(CC(N)=O)CC(N)=O)C4)nc3c2C(C)C)cn2ncnc12` (stereo not drawn) [Example 708]: the figures for the IC50 on human TLR9 (setting [1]), against human TLR7 (setting [2]) and at human TLR8 (setting [3]) were greater than 50000 nM, 12 nM and 280 nM, respectively.
For `Cc1cc(-c2[nH]c3ccc(C4CCN(C5CCN(C)C5=O)CC4)nc3c2C(C)C)cn2ncnc12` (stereo not drawn) [Example 561], the IC50 at human TLR9 (setting [1]) was 5650 nM; against human TLR7 (setting [2]), 0.64 nM; at human TLR8 (setting [3]), 3 nM.
Turning to `Cc1c(-c2[nH]c3ccc(C4CCN(CC(C)(C)O)CC4)nc3c2C(C)C)cn(C)c(=O)c1C` [Example 546], the IC50 came out at 1380 nM on human TLR9 (setting [1]), 9.5 nM at human TLR7 (setting [2]) and 1.6 nM at human TLR8 (setting [3]).
`COc1cc(-c2[nH]c3ccc(N4CCN(CCCC(F)(F)F)CC4)nc3c2C(C)C)cn2ncnc12` [Example 135]: the values for the IC50 on human TLR9 (setting [4]), against human TLR7 (setting [5]) and at human TLR8 (setting [6]) were 13200 nM, 4.7 nM and 1.6 nM, respectively.
For the compound `Cc1c(-c2[nH]c3ccc(C4CCC(NC5(C)COC5)CC4)nc3c2C(C)C)cn2ncnc2c1C` (stereo not drawn) [Example 472], the IC50 worked out at 2510 nM at human TLR9 (setting [1]), 0.34 nM against human TLR7 (setting [2]) and 1.1 nM on human TLR8 (setting [3]).
In the case of `COc1cc(-c2[nH]c3cc(C)c(C4CCC(NCC(C)(C)O)CC4)nc3c2C(C)C)cn2ncnc12` (stereo not drawn) [Example 314], the IC50 at human TLR9 (setting [4]) was 5510 nM; on human TLR7 (setting [5]), 2.4 nM; on human TLR8 (setting [6]), 47 nM.
On the same counts, the results for `Cc1c(-c2[nH]c3ccc(N4CCN(C(=O)CNC5CCC5)CC4)nc3c2C(C)C)cn2ncnc2c1C` [Example 156] are 6750 nM, 1.5 nM and 0.79 nM.
For the compound `Cc1c(-c2[nH]c3ccc(C4CCC(NCCC#N)CC4)nc3c2C(C)C)cn2ncnc2c1C` (stereo not drawn) [Example 384], the IC50 on human TLR9 (setting [4]) came out at 1530 nM; against human TLR7 (setting [5]) it was 13 nM; at human TLR8 (setting [6]), 25 nM.
In the same order, the values of `COc1cc(-c2[nH]c3cc(C)c(C4CCC(N(C)C5COC5)CC4)nc3c2C(C)C)cn2ncnc12` (stereo not drawn) [Example 330] are 2970 nM, 0.14 nM and 4.8 nM.
On to `COc1cc(-c2[nH]c3ccc(C4CC(N(C)C)C4)nc3c2C(C)C)cn2ncnc12` (stereo not drawn) [Example 629], for which the concentration for half-maximal inhibition (IC50) at human TLR9 (setting [1]) came to 1920 nM; against human TLR7 (setting [2]), 2.6 nM; at human TLR8 (setting [3]), 6.5 nM.
On to `Cc1c(-c2[nH]c3ccc(N4CCC(NC5CCOCC5)CC4)nc3c2C(C)C)cn2ncnc2c1C` [Example 49], for which the IC50 on human TLR9 (setting [4]) turned out to be 2670 nM; on human TLR7 (setting [5]), 1 nM; on human TLR8 (setting [6]), 0.62 nM.
On the same counts, the results for `COc1cc(-c2[nH]c3cc(F)c(C4CCC(NC5COC5)CC4)nc3c2C(C)C)cn2ncnc12` (stereo not drawn) [Example 346] are 6290 nM, 0.32 nM and 6 nM.
On the same counts, the results for `CC(C)c1c(-c2cn(CCS(C)(=O)=O)c3ncccc23)[nH]c2ccc(C3CCC(O)CC3)nc12` (stereo not drawn) [Example 260] are 10900 nM, 527 nM and 173 nM.
As to `Cc1cc(-c2[nH]c3cc(F)c(C4CCN(CC(=O)N(C)C)CC4)nc3c2C(C)C)cn2ncnc12` [Example 580], the figures for the IC50 at human TLR9 (setting [1]), at human TLR7 (setting [2]) and at human TLR8 (setting [3]) were 1790 nM, 0.41 nM and 8.7 nM, respectively.
For the compound `COc1cc(-c2[nH]c3cc(C)c(C4CCC(N5CC6(COC6)C5)CC4)nc3c2C(C)C)cn2ncnc12` (stereo not drawn) [Example 317], the concentration for half-maximal inhibition (IC50) at human TLR9 (setting [4]) worked out at 3610 nM; against human TLR7 (setting [5]), 4.8 nM; on human TLR8 (setting [6]), 94 nM.
`Cc1c(-c2[nH]c3ccc(CCC4CN(CCS(C)(=O)=O)C4)nc3c2C(C)C)cn2ncnc2c1C` [Example 695]: the IC50 turned out to be 3950 nM on human TLR9 (setting [1]), 42 nM against human TLR7 (setting [2]) and 20 nM at human TLR8 (setting [3]).
Turning to `Cc1c(-c2[nH]c3ccc(N4CCN(C(=O)CN(C)C(C)C)C[C@H]4C)nc3c2C(C)C)cn2ncnc2c1C` [Example 933], the IC50 is 18400 nM at human TLR9 (setting [7]), 0.63 nM against human TLR7 (setting [8]) and 18 nM on human TLR8 (setting [9]).
Take `CNC(=O)CN1CCC(c2ccc3[nH]c(-c4cc(OC)c5ncnn5c4)c(C(C)C)c3n2)CC1` [Example 536]: the IC50 was determined as 2660 nM on human TLR9 (setting [1]), 0.66 nM at human TLR7 (setting [2]) and 4.1 nM at human TLR8 (setting [3]).
In the same order, the values of `Cc1c(-c2[nH]c3ccc(C4CCC(N(C)C5COC5)CC4)nc3c2C(C)C)cn2ncnc2c1C` (single isomer, unassigned) [Example 424, N-(4-(2-(7,8-dimethyl-[1,2,4]triazolo[1,5-a]pyridin-6-yl)-3-isopropyl-1H-pyrrolo[3,2-b]pyridin-5-yl)cyclohexyl)-N-methyloxetan-3-amine] are 1530 nM, 0.89 nM and 0.74 nM.
Take `Cc1c(-c2[nH]c3ccc(N4C[C@H](C)N(CCCS(C)(=O)=O)C[C@H]4C)nc3c2C(C)C)cn2ncnc2c1C` [Example 845]: the IC50 on human TLR9 (setting [7]) worked out at 21300 nM; against human TLR7 (setting [8]), 7.2 nM; at human TLR8 (setting [9]) it was 14 nM.
As for `COc1cc(-c2[nH]c3ccc(C4CCC(NC5CCOCC5)C4)nc3c2C(C)C)cn2ncnc12` (stereo not drawn) [Example 721], the values for the IC50 at human TLR9 (setting [1]), against human TLR7 (setting [2]) and on human TLR8 (setting [3]) were 982 nM, 0.41 nM and 0.53 nM, respectively.
Regarding `CCN(C)C1CCC(c2ccc3[nH]c(-c4cn5ncnc5c(C)c4C)c(C(C)C)c3n2)CC1` (stereo not drawn) [Example 390], the figures for the IC50 on human TLR9 (setting [4]), against human TLR7 (setting [5]) and at human TLR8 (setting [6]) were 3090 nM, 1.6 nM and 7.6 nM, respectively.
`Cc1c(-c2[nH]c3ccc(N4CC(O)C4)nc3c2C(C)C)cn2ncnc2c1C` [Example 38]: the IC50 at human TLR9 (setting [4]) was 44400 nM; on human TLR7 (setting [5]), 21 nM; at human TLR8 (setting [6]), 5.2 nM.
Take `COc1cc(-c2[nH]c3ccc(N4CCNCC4)nc3c2C(C)C)cn2ncnc12` [Example 89]: the IC50 at human TLR9 (setting [4]) came out at 3260 nM; against human TLR7 (setting [5]), 0.51 nM; on human TLR8 (setting [6]), 0.59 nM.
As to `Cc1c(-c2[nH]c3ccc(C4CCC(NCC5CCCCS5(=O)=O)CC4)nc3c2C(C)C)cn2ncnc2c1C` (stereo not drawn) [Example 471], the IC50 at human TLR9 (setting [1]) amounted to 4710 nM; against human TLR7 (setting [2]), 2.8 nM; on human TLR8 (setting [3]) it was 3.2 nM.
Take `CNC1CCC(c2ccc3[nH]c(-c4cn(CCO)c5ncccc45)c(C(C)C)c3n2)CC1` (stereo not drawn) [Example 295]: the concentration for half-maximal inhibition (IC50) on human TLR9 (setting [4]) was 883 nM; at human TLR7 (setting [5]), 11 nM; on human TLR8 (setting [6]) it was 11 nM.
As to `CCCN(C)CC(=O)N1CCN(c2ccc3[nH]c(-c4cn5ncnc5c(C)c4C)c(C(C)C)c3n2)CC1` [Example 873], the half-maximal inhibitory concentration (IC50) was found to be 12800 nM on human TLR9 (setting [7]), 3.1 nM against human TLR7 (setting [8]) and 1.8 nM on human TLR8 (setting [9]).
For the compound `Cc1c(-c2[nH]c3ccc(N4CCN(C(=O)CN(C)C(C)(C)C)[C@H](C)C4)nc3c2C(C)C)cn2ncnc2c1C` [Example 944], the IC50 on human TLR9 (setting [7]) was 17100 nM; against human TLR7 (setting [8]) it was 3.1 nM; on human TLR8 (setting [9]), 4.9 nM.
Take `COc1cc(-c2[nH]c3ccc(N4CC5(CN(C)C5)C4)nc3c2C(C)C)cn2ncnc12` [Example 1017]: the results for the 50% inhibitory concentration (IC50) on human TLR9 (setting [7]), at human TLR7 (setting [8]) and at human TLR8 (setting [9]) were 3300 nM, 1.3 nM and 16 nM, respectively.
`CNC(=O)CN1CCN(c2ccc3[nH]c(-c4cc(OC)c5ncnn5c4)c(C(C)C)c3n2)CC1` [Example 138]: the IC50 at human TLR9 (setting [4]) is greater than 50000 nM; against human TLR7 (setting [5]), 11 nM; on human TLR8 (setting [6]) it was 4.6 nM.
As to `CC(C)c1c(-c2cn(C)c3ncccc23)[nH]c2ccc(C3CCC(NC4CC4)CC3)nc12` (stereo not drawn) [Example 243], the IC50 at human TLR9 (setting [4]) was 999 nM; against human TLR7 (setting [5]), 7.6 nM; on human TLR8 (setting [6]), 9.5 nM.
On to `CCN(CC)CC(=O)N1CCN(c2ccc3[nH]c(-c4cn5ncnc5c(C)c4C)c(C(C)C)c3n2)CC1` [Example 871], for which the values for the IC50 on human TLR9 (setting [7]), at human TLR7 (setting [8]) and at human TLR8 (setting [9]) were 12700 nM, 1.6 nM and 5.1 nM, respectively.
In the case of `Cc1c(-c2[nH]c3ccc(C4CCC(N(C)C(=O)CN(C)C)CC4)nc3c2C(C)C)cn2ncnc2c1C` (stereo not drawn) [Example 404], the half-maximal inhibitory concentration (IC50) amounted to 1540 nM at human TLR9 (setting [1]), 3.8 nM on human TLR7 (setting [2]) and 9.3 nM at human TLR8 (setting [3]).
As to `Cc1c(-c2[nH]c3ccc(C4CCC(N(C)CC(=O)N(C)C)CC4)nc3c2C(C)C)cn2ncnc2c1C` (stereo not drawn) [Example 368, 2-((4-(2-(7,8-dimethyl-[1,2,4]triazolo[1,5-a]pyridin-6-yl)-3-isopropyl-1H-pyrrolo[3,2-b]pyridin-5-yl)cyclohexyl)(methyl)amino)-N,N-dimethylacetamide], the IC50 at human TLR9 (setting [4]) was determined as 1610 nM; against human TLR7 (setting [5]), 1.5 nM; at human TLR8 (setting [6]) it was 2.5 nM.
In the case of `CCN(CC1(S(C)(=O)=O)CC1)C1CCC(c2ccc3[nH]c(-c4cn5ncnc5c(C)c4C)c(C(C)C)c3n2)CC1` (stereo not drawn) [Example 480], the IC50 was 11700 nM at human TLR9 (setting [1]), 2 nM against human TLR7 (setting [2]) and 14 nM at human TLR8 (setting [3]).
Regarding `COc1cc(-c2[nH]c3ccc(OC4CCC(N(C)C)CC4)nc3c2C(C)C)cn2ncnc12` (stereo not drawn) [Example 614, 4-((3-isopropyl-2-(8-methoxy-[1,2,4]triazolo[1,5-a]pyridin-6-yl)-1H-pyrrolo[3,2-b]pyridin-5-yl)oxy)-N,N-dimethylcyclohexan-1-amine], the concentration for half-maximal inhibition (IC50) was found to be 1010 nM at human TLR9 (setting [1]), 1.9 nM against human TLR7 (setting [2]) and 13 nM at human TLR8 (setting [3]).
In the case of `COc1cc(-c2[nH]c3ccc(C4CCC(N(C)CCO)CC4)nc3c2C(C)C)cn2ncnc12` (stereo not drawn) [Example 191], the results for the 50% inhibitory concentration (IC50) at human TLR9 (setting [4]), against human TLR7 (setting [5]) and at human TLR8 (setting [6]) were 202 nM, 0.9 nM and 2.7 nM, respectively.
As for `Cc1c(-c2[nH]c3ccc(C4CN(C(C)C)CCO4)nc3c2C(C)C)cn2ncnc2c1C` (stereo not drawn) [Example 658], the IC50 worked out at 13600 nM on human TLR9 (setting [1]), 3.8 nM against human TLR7 (setting [2]) and 8.2 nM on human TLR8 (setting [3]).
